Data from paper PMC10054465, “Design, Synthesis, and Antiviral Activities of New Benzotriazole-Based Derivatives” (Pharmaceuticals, 2023).

Key:
[1] = Cytotoxicity in mock-infected Vero-76 monolayers; conditions: African green monkey (Cercopithecus aethiops)
[2] = test system: HSV-1; assay: microbe, parasite or virus in culture; format: cell-based, human herpesvirus 1; conditions: Human alphaherpesvirus 1, Vero 76, read-out: HSV-1 EC50
[3] = Cytotoxicity in mock-infected MDBK cells (MTT); conditions: cattle (Bos taurus), mock-infected
[4] = test system: Reo-1; assay: microbe, parasite or virus in culture; format: cell-based, Reovirus type-1; conditions: Reovirus sp., BHK-21, read-out: Reo-1 EC50
[5] = test system: RSV; assay: microbe, parasite or virus in culture; format: cell-based; conditions: human respiratory syncytial virus, Vero 76, read-out: RSV EC50
[6] = test system: VV; assay: microbe, parasite or virus in culture; format: cell-based; conditions: Orthopoxvirus vaccinia, Vero 76, read-out: VV EC50
[7] = test system: VSV; assay: microbe, parasite or virus in culture; format: cell-based; conditions: Vesicular stomatitis virus, Vero 76, read-out: VSV EC50
[8] = test system: YFV; assay: microbe, parasite or virus in culture; format: cell-based; conditions: Yellow fever virus, BHK-21, read-out: YFV EC50
[9] = Cytotoxicity in mock-infected BHK-21 monolayers (MTT); conditions: Syrian hamster (Mesocricetus auratus)
[10] = test system: CVB5; assay: microbe, parasite or virus in culture; format: cell-based, human enterovirus B (coxsackievirus B5); conditions: Enterovirus B, CVB5, Vero 76, read-out: CVB5 EC50
[11] = test system: Sb-1; assay: microbe, parasite or virus in culture; format: cell-based, human enterovirus C (poliovirus type-1); conditions: Enterovirus C, Vero 76, read-out: Sb-1 EC50
[12] = test system: BVDV; assay: microbe, parasite or virus in culture; format: cell-based; conditions: Bovine viral diarrhea virus isolates and strains, MDBK, read-out: BVDV EC50
[13] = test system: Caco-2 cell monolayers
[14] = test system: CVB; conditions: cited from earlier work
[15] = Vero-76 cell monolayers, mock-infected
[16] = BHK-21 cell monolayers, mock-infected

| SMILES | CC50 [1, 15] | EC50 [2] | CC50 [3] | EC50 [4] | EC50 [5] | EC50 [6] | EC50 [7] | EC50 [8] | melting point | CC50 [9, 16] | EC50 [10] | EC50 [11] | CC50 ([1]; Vero-76 cells) | EC50 [12] | TEER values versus control (in words) [13] | EC50 [14] | activity against CVB (in words) [14] | CC50 ([9]; BHK-21 cells) |
| --- | --- | --- | --- | --- | --- | --- | --- | --- | --- | --- | --- | --- | --- | --- | --- | --- | --- | --- |
| Nc1nc2c(ncn2COCCO)c(=O)[nH]1 [ACG, acycloguanosine, reference compound] | > 100 µM | 2.4 ± 0.6 µM |  |  |  |  |  |  |  |  |  |  |  |  |  |  |  |  |
| CCCCNC(=O)Nc1cccc(Cn2nc3cc(C)c(C)cc3n2)c1 [32b] | > 100 µM | > 100 µM | > 100 µM | > 100 µM | > 100 µM | > 100 µM | > 100 µM | > 100 µM | 288 to 289 °C | > 100 µM | > 100 µM | 85 µM |  |  |  |  |  |  |
| CC(=O)Nc1ccc(Cn2nnc3ccccc32)cc1 [79c] | 72 µM | > 72 µM | 44 µM | > 86 µM | > 9 µM | > 72 µM | > 72 µM | > 86 µM | 187 to 189 °C | 86 µM | > 72 µM | > 72 µM | 9 µM | > 44 µM |  |  |  |  |
| O=C(Nc1cccc(Cn2nnc3cc(Cl)c(Cl)cc32)c1)c1ccc(Cl)cc1 [43a, N-(3-((5,6-dichloro-1H-benzo[d][1,2,3]triazol-1-yl)methyl)phenyl)-4-chlorobenzamide] | > 100 µM | > 100 µM | > 100 µM | > 100 µM | > 9.2 µM | > 100 µM | > 100 µM | > 100 µM |  | > 100 µM | 9 ± 1.6 µM | > 100 µM | 9.2 µM | > 100 µM | did not significantly differ from control values |  |  |  |
| Cc1cc2nn(Cc3cccc(NC(=O)c4ccc(F)cc4)c3)nc2cc1C [25b] | > 100 µM | > 100 µM | > 100 µM | > 100 µM | > 100 µM | > 100 µM | > 100 µM | > 100 µM | 211 to 212 °C | > 100 µM | 47 ± 2.2 µM | > 100 µM |  | > 100 µM |  |  |  |  |
| Nc1ccc(Cn2nc3cc(F)c(F)cc3n2)cc1 [11d] | > 100 µM | > 100 µM | > 100 µM | > 100 µM | > 100 µM | > 100 µM | > 100 µM | > 100 µM | 149 to 150 °C | > 100 µM | 7.6 ± 1.9 µM | > 100 µM |  | > 100 µM |  |  |  |  |
| O=c1cnn([C@@H]2O[C@H](CO)[C@@H](O)[C@H]2O)c(=O)[nH]1 [6az-ur, 6-azauridine, reference compound] | 9.3 ± 1.6 µM |  |  |  | 1.1 ± 0.4 µM |  |  | 46 ± 2.5 µM |  | > 100 µM |  |  |  |  |  |  |  |  |
| Cc1cc2nn(Cc3ccc(N)cc3)nc2cc1C [11b] | > 100 µM | > 100 µM | > 100 µM | > 100 µM | > 100 µM | > 100 µM | > 100 µM | > 100 µM | 169 to 171 °C | > 100 µM | 6 µM | > 100 µM |  | > 100 µM |  |  |  |  |
| Cc1cc(CCCOc2c(C)cc(-c3noc(C(F)(F)F)n3)cc2C)on1 [Plec, pleconaril, reference compound] | 77 ± 6.8 µM |  |  |  |  |  |  |  |  |  | 0.005 ± 0.002 µM | 2 ± 0.62 µM |  |  |  |  |  |  |
| COc1cc(C(=O)Nc2ccc(Cn3nnc4c(F)cccc43)cc2)cc(OC)c1OC [21e] | > 100 µM | > 100 µM | 72 µM |  | 20 ± 2 µM | > 100 µM | > 100 µM |  | 177 to 179 °C | 60 µM | > 100 µM | > 100 µM |  |  |  |  |  |  |
| O=C(CCC(=O)Nc1ccc(Cn2nnc3cc(Cl)c(Cl)cc32)cc1)Nc1ccc(Cn2nnc3cc(Cl)c(Cl)cc32)cc1 [B, N1,N4-bis(4-((5,6-dichloro-1H-benzo[d][1,2,3]triazol-1-yl)methyl)phenyl)succinamide] |  |  |  |  |  |  |  |  |  |  |  |  |  |  |  | 23 µM |  |  |
| O=C(CCC(=O)Nc1ccc(-n2nnc3cc(Cl)c(Cl)cc32)cc1)Nc1ccc(-n2nnc3cc(Cl)c(Cl)cc32)cc1 [A, N1,N4-bis(4-(5,6-dichloro-1H-benzo[d][1,2,3]triazol-1-yl)phenyl)succinamide] |  |  |  |  |  |  |  |  |  |  |  |  |  |  |  |  | not active |  |
| COc1cc(C(=O)Nc2cccc(Cn3nnc4cc(Cl)c(Cl)cc43)c2)cc(OC)c1OC [41a] | > 100 µM | > 100 µM | > 100 µM | > 7 µM | > 10.5 µM | > 100 µM | > 100 µM | > 100 µM | 142 to 144 °C | > 100 µM | 18.5 ± 2.1 µM | > 100 µM | 10.5 µM | > 100 µM |  |  |  | 7 µM |
| Cc1cc2nnn(Cc3ccc(NC(=O)NC4CCCCC4)cc3)c2cc1C [100b] | > 100 µM | > 100 µM | > 100 µM | > 100 µM | > 100 µM |  | > 100 µM | > 100 µM | 216 to 218 °C | > 100 µM | 50 µM | > 100 µM |  | > 100 µM |  |  |  |  |
| COc1ccc(C(=O)Nc2ccc(Cn3nnc4ccccc43)cc2)cc1 [86c] | 85 µM |  | 87 µM |  |  |  |  |  | 172 to 174 °C | 95 µM |  |  |  | 3 µM |  |  |  |  |
| C[C@@]1(O)[C@H](O)[C@@H](CO)O[C@H]1n1cnc2c(=O)[nH]c(N)nc21 [NM108, 2′-C-methyl-guanosine, reference compound] |  |  | > 100 µM |  |  |  |  | 1 µM |  | > 100 µM |  |  |  | 1.5 µM |  |  |  |  |
| C[C@@]1(O)[C@H](O)[C@@H](CO)O[C@H]1n1ccc(N)nc1=O [NM107, 2’-C-methylcytidine, reference compound] |  |  |  | 6 ± 2.1 µM |  |  |  |  |  | > 100 µM |  |  |  |  |  |  |  |  |
| Nc1cccc(Cn2nnc3cc(Cl)c(Cl)cc32)c1 [6a] | > 100 µM | > 100 µM | > 100 µM |  | > 100 µM | 62.5 ± 16.2 µM | > 100 µM |  | 161 to 162 °C | 57 µM | 52 ± 3.6 µM | > 100 µM |  | > 100 µM |  |  |  |  |
| CCCNC(=O)Nc1ccc(Cn2nnc3cc(C)c(C)cc32)cc1 [99b] | > 100 µM | > 100 µM | > 100 µM | > 100 µM | > 100 µM | > 100 µM | > 100 µM | > 100 µM | 190 to 192 °C | > 100 µM | 16 µM | > 100 µM |  | > 100 µM |  |  |  |  |
